Key:
[1] = test system: recombinant human anti-SARS-CoV antibody 03-018; assay type: binding; design: Binding of antibody 03-018 to linear peptides of the N protein of SARS-CoV Urbani / Binding of antibody 03-018 to looped/cyclic peptides of the N protein of SARS-CoV Urbani: unit not given here
[2] = test system: rabbit serum obtained by immunizing a rabbit with the SARS-CoV strain Frankfurt 1; assay type: binding; design: Binding of a rabbit serum to linear peptides / Binding of a rabbit serum to looped peptides / Rabbit serum linear peptides / Rabbit serum looped peptides / Binding of a rabbit serum to linear peptides of protein N of SARS-CoV Urbani (Rabbit serum linear peptides) / Binding of a rabbit serum to looped/cyclic peptides of protein N of SARS-CoV Urbani (Rabbit serum looped peptides): unit not given here
[3] = test system: control sera (pooled serum of ten healthy LUMC hospital workers; commercial negative donor pooled serum from the Dutch bloodbank); assay type: binding, human; design: Binding of Control serum LUMC to linear peptides / Binding of Control serum Blood-bank to linear peptides / Binding of Control serum LUMC to looped peptides / Binding of Control Serum Blood-Bank to Looped peptides / Binding of Control serum LUMC to linear peptides of the protein M of SARS-CoV Urbani / Binding of Control serum Blood-bank to linear peptides of the protein M of SARS-CoV Urbani / Binding of Control serum LUMC to looped peptides of the protein M of SARS-CoV Urbani / Binding of Control Serum Blood-Bank to Looped peptides of the protein M of SARS-CoV Urbani: unit not given here
[4] = test system: antibodies in sera from SARS patients (sera 1a, 1b, 2, 6, 37, 62, London, SARS-yellow, SARS-green); assay type: binding, human; design: Binding of serum 6 to linear peptides of protein X1 of SARS-CoV Urbani / Binding of serum 37 to linear peptides of protein X1 of SARS-CoV Urbani / Binding of serum 6 to looped/cyclic peptide (PEPSCAN-ELISA) / Binding of serum 37 to looped/cyclic peptide (PEPSCAN-ELISA) / Binding of serum 37 to looped/cyclic peptides of protein X1 of SARS-CoV Urbani / Binding of serum 6 to linear peptides of protein X2 / Binding of serum 37 to linear peptides of protein X2 / Binding of serum 37 to looped/cyclic peptides of protein X2 of SARS-CoV Urbani / Binding of serum 6 to linear peptides of protein M of SARS-CoV Urbani / Binding of serum 37 to linear peptides of protein M of SARS-CoV Urbani / Binding of serum 6 to looped/cyclic peptides of protein M of SARS-CoV Urbani / Binding of serum 37 to looped/cyclic peptides of protein M of SARS-CoV Urbani / Binding of serum 6 to linear peptides of protein X3 of SARS-CoV Urbani / Binding of serum 37 to linear peptides of protein X3 of SARS-CoV Urbani / Binding of serum 37 to looped/cyclic peptides of protein X3 of SARS-CoV Urbani / Binding of serum 6 to linear peptides of protein X4 of SARS-CoV Urbani / Binding of serum 37 to linear peptides of protein X4 of SARS-CoV Urbani / Binding of serum 37 to looped/cyclic peptides of protein X4 of SARS-CoV Urbani / Binding of serum 6 to linear peptides of protein X5 of SARS-CoV Urbani / Binding of serum 37 to linear peptides of protein X5 of SARS-CoV Urbani / Binding of serum 37 to looped/cyclic peptides of protein X5 of SARS-CoV Urbani / Binding of serum 6 to linear peptides of protein N of SARS-CoV Urbani / Binding of serum 37 to linear peptides of protein N of SARS-CoV Urbani / Binding of serum 6 to linear peptide (PEPSCAN-ELISA) / Binding of serum 1a to looped/cyclic peptides of protein N of SARS-CoV Urbani / Binding of serum 1b to looped/cyclic peptides of protein N of SARS-CoV Urbani / Binding of serum 2 to looped/cyclic peptides of protein N of SARS-CoV Urbani / Binding of serum 6 to looped/cyclic peptides of protein N of SARS-CoV Urbani / Binding of serum 37 to looped/cyclic peptides of protein N of SARS-CoV Urbani / Binding of serum 62 to looped/cyclic peptides of protein N of SARS-CoV Urbani / Binding of serum London to looped/cyclic peptides of protein N of SARS-CoV Urbani / Binding of serum SARS-green to looped/cyclic peptides of protein N of SARS-CoV Urbani: unit not given here

| Sequence | Binding of a rabbit serum to linear peptides of protein N of SARS-CoV Urbani (Rabbit serum linear peptides) [2] | Binding of a rabbit serum to looped/cyclic peptides of protein N of SARS-CoV Urbani (Rabbit serum looped peptides) [2] | Binding of Control Serum Blood-Bank to Looped peptides [3] | Binding of Control serum Blood-bank to linear peptides [3] | Binding of Control serum LUMC to linear peptides [3] | Binding of Control serum LUMC to looped peptides [3] | Binding of serum 1a to linear peptides of protein N of SARS-CoV Urbani [4] | Binding of serum 1a to looped/cyclic peptides of protein N of SARS-CoV Urbani [4] | Binding of serum 1b to linear peptides of protein N of SARS-CoV Urbani [4] | Binding of serum 1b to looped/cyclic peptides of protein N of SARS-CoV Urbani [4] | Binding of serum 2 to linear peptides of protein N of SARS-CoV Urbani [4] | Binding of serum 2 to looped/cyclic peptides of protein N of SARS-CoV Urbani [4] | Binding of serum 6 to linear peptides of protein N of SARS-CoV Urbani [4] | Binding of serum 6 to looped/cyclic peptides of protein N of SARS-CoV Urbani [4] | Binding of serum 37 to linear peptides of protein N of SARS-CoV Urbani [4] | Binding of serum 37 to looped/cyclic peptides of protein N of SARS-CoV Urbani [4] | Binding of serum 62 to looped/cyclic peptides of protein N of SARS-CoV Urbani [4] | Binding of serum London to looped/cyclic peptides of protein N of SARS-CoV Urbani [4] | Binding of serum SARS-green to looped/cyclic peptides of protein N of SARS-CoV Urbani [4] | Binding of serum SARS-yellow to looped/cyclic peptides of protein N of SARS-CoV Urbani [4] | further results |
| --- | --- | --- | --- | --- | --- | --- | --- | --- | --- | --- | --- | --- | --- | --- | --- | --- | --- | --- | --- | --- | --- |
| SNQRSAPRITFGGPT | 0.4 | 0.9 | 0.7 | 0.6 | 0.5 | 0.7 | 0.2 | 0.4 | 0.1 | 0.2 | 0.2 | 0.4 | 0.1 | 0.4 | 0.6 | 0.7 | 0.4 | 0.9 | 0.3 | 0.6 | Recognition of the peptide by antibody 03-018 [1]: recognized; Binding of serum 62 to linear peptides of protein N of SARS-CoV Urbani [4]: 0.6; Binding of serum London to linear peptides of protein N of SARS-CoV Urbani [4]: 0.4; Binding of serum SARS-green to linear peptides of protein N of SARS-CoV Urbani [4]: 0.2; Binding of serum SARS-yellow to linear peptides of protein N of SARS-CoV Urbani [4]: 0.5 |
| SPRWYFYYLGTGPEA | 0.2 | 0.6 | 0.8 | 0.7 | 0.6 | 0.8 | 0.3 | 0.6 | 0.2 | 0.3 | 0.2 | 0.5 | 0.2 | 0.4 | 0.9 | 0.9 | 1.1 | 0.7 | 0.6 | 0.7 | Binding of antibody 03-018 to linear peptides of the N protein of SARS-CoV Urbani [1]: 0.1; Binding of antibody 03-018 to looped/cyclic peptides of the N protein of SARS-CoV Urbani [1]: 0.2; Binding of serum 62 to linear peptides of protein N of SARS-CoV Urbani [4]: 0.9; Binding of serum London to linear peptides of protein N of SARS-CoV Urbani [4]: 0.5; Binding of serum SARS-green to linear peptides of protein N of SARS-CoV Urbani [4]: 0.6; Binding of serum SARS-yellow to linear peptides of protein N of SARS-CoV Urbani [4]: 0.6 |
| SRGGSQASSRSSSRS | 0.2 | 0.5 | 0.5 | 0.7 | 0.6 | 0.6 |  | 0.4 |  | 0.3 |  | 0.3 |  | 0.3 |  | 0.5 | 0.3 | 0.3 | 0.2 | 0.2 | Binding of antibody 03-018 to linear peptides of the N protein of SARS-CoV Urbani [1]: 0.1; Binding of antibody 03-018 to looped/cyclic peptides of the N protein of SARS-CoV Urbani [1]: 0.2; Binding of serum 1a to linear peptide (PEPSCAN-ELISA) [4]: 0.3; Binding of serum 1b to linear peptide (PEPSCAN-ELISA) [4]: 0.1; Binding of serum 2 to linear peptide (PEPSCAN-ELISA) [4]: 0.3; Binding of serum 6 to linear peptide (PEPSCAN-ELISA) [4]: 0.4; Binding of serum 37 to linear peptide (PEPSCAN-ELISA) [4]: 0.6; Binding of serum 62 to linear peptide (PEPSCAN-ELISA) [4]: 0.7; Binding of serum London to linear peptide (PEPSCAN-ELISA) [4]: 0.4; Binding of serum SARS-green to linear peptide (PEPSCAN-ELISA) [4]: 0.1; Binding of serum SARS-yellow to linear peptide (PEPSCAN-ELISA) [4]: 0.9 |

Source: patent US20070128217A1 (priority 2003, published 2007)
